Data on 2 compounds can be found in patent publication US20260306421A1, “SYSTEMS AND METHODS FOR TRANSDERMAN PATCH DELIVERY” (VITAMAX PATCH WHOLESALER LLC, priority 2022, published 2026).

Common to all, as to type: physicochemical
The nature of data set [1]: Solubility of cholecalciferol and cholecalciferol phosphate (disodium, acid). To be noted: visual solubility. As for the experimental part:
Aliquots of cholecalciferol, cholecalciferol phosphate disodium, and cholecalciferol phosphate acid were added to a range of solvents including propylene glycol (PG), distilled water, methanol, ethyl acetate, ethanol, n-hexane, and the visual solubility was determined. A precise assessment of the saturation solubility was for some of the solvent systems was made using high-performance liquid chromatography (HPLC). In the HPLC solubility studies, an excess of each solute was added into 2 mL of each test solvent. The solutions were left stirring overnight at room temperature, (RT), 22° C. The saturation of the solutions was confirmed by the visual appearance of crystals and the drug suspensions were filtered through 0.2 μm cellulose acetate syringe filters, diluted with excess of mobile phase, and the solute concentration of each sample was assessed using HPLC.

Data set [2] in a line: Cholecalciferol phosphate adhesive suitability / compatibility screen. As for the experimental part:
Pre-formulation studies were performed to determine the compatibility of cholecalciferol phosphate (disodium and acid forms) with a range of adhesives (Table 38) that could be used to manufacture of the patch. The compatibility of the drugs with the patch excipients was assessed through checking the clarity of the mixture.
The compatibility of the adhesive with solvents and drug was established. The maximum drug loading in the adhesive following solvent evaporation was determined by mixing the drug, adhesive and co-solvents until a clear solution is obtained at different drug:adhesive ratios by placing a drop of solution onto patch backing sheet, leaving the slide to dry for 3-4 hours and examining the formed fil on the surface of the backings for evidence of drug crystals were assessed using KKmoon digital magnifier with LED light (China). Following patch optimization, the drug-adhesive solution was cast as 10×10 cm squares using of backing (3M™ Scotchpak™ Polyester Backing Film Laminate 9730). A sufficient volume of the adhesive was applied to achieve a target coating of 8 mg/cm^2. Following complete drying of the solvents, the adhesive layer was covered by M3 Release liner (SCOTCHPAK 9755), compressed, and then cut using 34 mm circular manual die cutter (SCP Super Cutting Press).

The nature of data set [3]: Chemical stability of cholecalciferol phosphate acid in skin permeation solvents. To be noted: 24 h, 37° C. On the procedure: To assess the chemical stability of the cholecalciferol phosphate acid in the solutions employed in the skin permeation experiments a 1 mg/mL solution of cholecalciferol phosphate acid in propylene glycol (PG) was prepared and incubated at 37° C. for 24 hours. In addition 100 μg/mL cholecalciferol phosphate acid in 90:10 methanol:water and in 80:20 PG:water were also incubated at 37° C. for 24 hours. The concentration pre and post incubation was compared to determine the chemical stability during the permeation studies.

Data set [4] is described as follows: Solubility of iron chloride hexahydrate and iron complexes (visual / assayed). To be noted: visual (*). In a few lines: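 Visual screen across solvents, then quantitation with excess complex by one of three incubations: 48 h shaking at 37 °C, 2 h sonication at 40 °C, or overnight at 50 °C. Iron in the supernatant after centrifugation was measured by Ferrozine assay.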

Data set [5] in a line: Iron complex adhesive compatibility and loading screen.
The nature of data set [6]: Iron complex reservoir solvent solubility screening. To be noted: Span 80, SDS, Tween 80 and Kolliphore EL.

Marks after values point to notes of the source that are not given here.

In the case of `C=C1CCC(OP(=O)(O)O)CC1=CC=C1CCCC2(C)C1CCC2C(C)CCCC(C)C` (stereo not shown) [Cholecalciferol phosphate acid, cholecalciferol phosphate acid], the Solubility in data set [1] (solvent Ethanol) was ~4* mg/mL; in data set [1] (solvent Ethyl acetate) it was <0.1* mg/mL; in data set [1] (solvent Hexane), ~40* mg/mL; in data set [1] (solvent Methanol (0.1% TFA)) it was <0.1* mg/mL; in data set [1] (solvent PG) it was ~10* mg/mL; in data set [2] (DURO-TAK 87-2052 0.268 mL, 10 mg drug, 0.5 mL hexane, 0.4 mL ethyl acetate) it was “Clear”. Also, the Solubility result in data set [2] (DURO-TAK 87-9301 100 mg, 5 mg drug, 5 mg dodecyl amine, 0.5 mL methanol, 0.25 mL ethyl acetate) is reported as “Clear”; in data set [2] (Duro-TAK 87-2516 100 mg, 10 mg drug, 10 mg dodecyl amine, 0.5 mL methanol, 0.5 mL ethyl acetate), “Clear”; in data set [2] (Duro-TAK 87-2516 100 mg, 10 mg drug, 10 mg dodecyl amine, 1 mL methanol, 1.25 mL ethyl acetate), “Clear”; in data set [2] (Duro-TAK 87-2516 100 mg, 10 mg drug, 10 mg dodecyl amine, 1.5 mL methanol, 1 mL ethyl acetate), “Clear”; in data set [2] (Oppanol B12 1.2 g, 65 mg drug, 15.9 mL hexane), “Clear”; in data set [2] (Oppanol B12 1.2 g, 65 mg drug, 15.9 mL hexane, 65 mg dodecyl amine), “Clear”. Also, in data set [2] (Oppanol B12 2.3 g, 130 mg drug, 32 mL hexane), the Solubility result is reported as “Clear”. In data set [2] (Oppanol B12, DURO-TAK 87-2516, 87-9301 and 87-2052), the “compatibility with adhesives and organic solvents” value was “showed compatibility”. Also, the “stability in donor, extraction and receiver solvent” value in data set [3] is “appropriate stability”.
In the case of `Cc1occc(=O)c1[O-].Cc1occc(=O)c1[O-].Cc1occc(=O)c1[O-].[Fe+3]` [Iron maltol made at pH 7.4, iron maltol], the “Solubility of complex (visual)” value is less than 20 mg/mg/mL in data set [4] (PEG400), no less than 20 mg/mg/mL in data set [4] (PG) and less than 20 mg/mg/mL in data set [4] (Transcutul). Further, the “Solubility in DURO-TAK 9301 patch” value in data set [5] (drug loading 4%, 2 mg PG) is reported as “Clear”; in data set [5] (drug loading 4%, no permeation enhancer), “Clear”; in data set [5] (drug loading 6%, no permeation enhancer) it was “Precipitated”; in data set [5] (drug loading 7%, 8 mg Maltol), “Precipitated”; in data set [5] (drug loading 7.5%, 4 mg PG), “Precipitated”; in data set [5] (drug loading 8%, no permeation enhancer) it was “Precipitated”. The “Solubility in DURO-TAK 9301 patch” value in data set [5] (drug loading 10%, 5.5 mg PG) is recorded as “Precipitated”; in data set [5] (drug loading 10%, 5.5 mg Transcutol), “Precipitated”; in data set [5] (drug loading 10%, no permeation enhancer), “Precipitated”. This compound also displayed a visual solubility in data set [6] of no more than 32 mg/mL.
